In patent US10059733B2 (NUCORION PHARMACEUTICALS, INC., priority 2014, dated 2018):
Read-outs that look alike come from different tables or passages of the source.

Assays:
HCV luciferase replicon = assay: IC50 assay: inhibition of the HCV luciferase replicon in Huh7 cells; assay type: cell-based; details: for IC50: Hepatitis C virus; for Therapeutic Index (TC50/IC50): TC50 in Huh7 / IC50 HCV replicon, 48 h
Description: After 48 h of treatment at 37° C., the media in each well was removed, the cells were gently washed once with phosphate buffered saline (PBS) and subsequently lysed by the addition of Glo Lysis Buffer (Promega). After a 15 min incubation at room temperature to allow for complete cell lysis, Bright-Glo luciferase reagent (Promega) was added to each well and the relative luciferase activity in each well was determined by using a Glowmax 96 microplate luminometer (Promega).
IC50 values determined using the above methods for inhibition of the HCV luciferase replicon in Huh7 cells are set forth in Table 1.
All compounds were purified by HPLC.

[1] = TC50 assay in Huh7 cells, 48 h (CellTiter 96); details: human
Description: (§1) Huh7 cells were maintained at 37° C. in a humidified atmosphere at 5% CO2 in DMEM containing 10% FBS. […] The cells were then treated with each compound at concentrations ranging from 500 μM to 0 μM in triplicate in DMEM media containing 2% FBS and 0.5% DMSO and without phenol red. After 48 h of treatment at 37° C., the relative number of living cells in each well was determined by using the CellTiter 96 system (Promega) according to the manufacturer's instructions. The 3-(4,5-dimethylthiazol-2-yl)-5-(3-carboxymethoxyphenyl)-2-(4-sulfophenyl)-2H-tetrazolium (MTS) and phenazine methosulfate (PMS) reagents were added to each well of the 96-well plate and the plate was incubated at 37° C. for approximately 2 h. The absorbance at 490 nm and 650 nm in each well was then determined by using a Flexstation 3 microplate reader ([…]). The absorbance determined at 650 nm was then subtracted from the absorbance determined at 490 nm to correct for light scattering. The corrected absorbance values representing the relative number of live cells in each condition were then plotted as a function of compound concentration, and the data were then fit to the following sigmoidal Emax equation by using Kaleidagraph: y=(Emax*x^Slope)/(TC50^Slope+x^Slope) where y is the relative corrected absorbance value, Emax is the maximum relative inhibition, x is the compound concentration, TC50 is the concentration of the compound at which the total cell population is reduced by 50%, and Slope is the slope of the curve.
(§2) The data in Table 1 were determined for cells exposed to drug for 48 h. The IC50 is the concentration of each compound necessary to inhibit the replication of the HCV luciferase replicon to 50%. “TC50,” refers to toxic concentration necessary to reduce the cell population by 50%. All compounds were purified by HPLC.

Huh7 = assay: TC50 assay with human cancer cell lines, 96 h: Huh7; assay type: cell-based
Description: (§6) Huh7 cells were maintained at 37° C. in a humidified atmosphere at 5% CO2 in DMEM containing 10% FBS. […] The cells were then treated with each compound at concentrations ranging from 500 μM to 0 μM in triplicate in DMEM media containing 2% FBS and 0.5% DMSO and without phenol red. After 48 h of treatment at 37° C., the relative number of living cells in each well was determined by using the CellTiter 96 system (Promega) according to the manufacturer's instructions. The 3-(4,5-dimethylthiazol-2-yl)-5-(3-carboxymethoxyphenyl)-2-(4-sulfophenyl)-2H-tetrazolium (MTS) and phenazine methosulfate (PMS) reagents were added to each well of the 96-well plate and the plate was incubated at 37° C. for approximately 2 h. The absorbance at 490 nm and 650 nm in each well was then determined by using a Flexstation 3 microplate reader (Molecular Dynamics). The absorbance determined at 650 nm was then subtracted from the absorbance determined at 490 nm to correct for light scattering. The corrected absorbance values representing the relative number of live cells in each condition were then plotted as a function of compound concentration, and the data were then fit to the following sigmoidal Emax equation by using Kaleidagraph: y=(Emax*x^Slope)/(TC50^Slope+x^Slope) where y is the relative corrected absorbance value, Emax is the maximum relative inhibition, x is the compound concentration, TC50 is the concentration of the compound at which the total cell population is reduced by 50%, and Slope is the slope of the curve.
(§7) Huh7, HEPG2, HEK293, MCF-7 and BxPC3 cell lines were maintained at 37° C. in a humidified atmosphere at 5% CO2 in DMEM containing 10% FBS. […] The cells were then treated with each compound at concentrations ranging from 500 μM to 0 μM in triplicate in DMEM media containing 2% FBS and 0.5% DMSO and without phenol red.

HEPG2 = assay: TC50 assay with human cancer cell lines, 96 h: HEPG2; assay type: cell-based
Description: as §6, §7

HEK293 = assay: TC50 assay with human cancer cell lines, 96 h: HEK293; assay type: cell-based
Description: as §6, §7

MCF-7 = assay: TC50 assay with human cancer cell lines, 96 h: MCF-7; assay type: cell-based
Description: as §6, §7

BxPC3 = assay: TC50 assay with human cancer cell lines, 96 h: BxPC3; assay type: cell-based
Description: as §6, §7

PK9 cells [2] = assay: TC50 assay in PK9 cells, 48 h; details: Homo sapiens, PK9, 48 h, read-out: TC50 (μM) in PK9 cells at 48 hr
Description: as §1
(§3) PK9 and RPK9 cells were maintained at 37° C. in a humidified atmosphere at 5% CO2 in Roswell Park Memorial Institute (RPMI) media containing 10% FBS. […] The cells were then treated with each compound at concentrations ranging from […] to 0 μM in triplicate in RPMI media containing 2% FBS and 0.5% DMSO and without phenol red. […] The RPK9 cells were derived from the parental PK9 cell line, and are deficient for dCK activity due to the partial deletion of the dCK gene.

RPK9 cells = assay: TC50 assay in gemcitabine resistant (dCK deficient) RPK9 cells, 48 h; details: read-out: TC50 (μM) in RPK9 cells at 48 hr
Description: as §1, §3

PK9 cells [3] = assay: Cell transport: cytotoxicity in PK9 cells with or without ENT1 inhibitor NBTI; details: Homo sapiens, PK9, 48 h
Description: as §1
(§4) To this end, Huh7 cells or PK9 cells were seeded in 96-well plates at a density of 5,000 cells/well or 2,500 cells/well, respectively, and the plates were incubated at 37° C. for 24 h to allow for cell attachment. The media was then removed from the plates and replaced with media containing 2% FBS, 0.5% DMSO and 10 μM NBTI. […] Subsequently, the cells were treated with each compound at final concentrations ranging from 500 μM to 0 μM in triplicate in media containing 2% FBS, 0.5% DMSO and 10 μM NBTI. […] The TC50 values of each compound in the presence or absence of the ENT1 inhibitor were then compared.

Huh7 cells [4] = assay: Cell transport: cytotoxicity in Huh7 cells with or without ENT1 inhibitor NBTI; details: Homo sapiens, Huh-7, 48 h
Description: as §1, §4

genotype 1a HCV = assay: Oral administration to HCV-infected chimpanzees, viral load (genotype 1a); assay type: in vivo, chimpanzee; details: Chimpanzee III
Description: (§5) Via oral gavage, two HCV-infected chimpanzees I (male, 56.49 kg and 11 years old; genotype 1b HCV) and II (male, 61.91 kg and 34 years old; genotype 1a HCV) each received a single dosage of 200 mg of Compound 1 in Formulation I while the HCV-infected chimpanzee III (male, 56.19 kg and 18 years old; genotype 1a HCV) was administered a single dosage of 260 mg of the non-phosphorylated analog of Compound 1 (Table 1) in Formulation I. After 12 hours, the HCV viral titer decreased from 24,100 to 10,200 IU/ml (or 58% drop) in Chimpanzee I, from 38,500 to 27,000 IU/ml (or 30% drop) in Chimpanzee II, and from 154,000 to 142,000 IU/ml (or 8% drop) in Chimpanzee III. […] All animals were fasted overnight prior to dosing and a minimum of 2 hours prior to scheduled blood sample collections. Viral load determinations were performed on plasma samples using the HCV TaqMan assay (COBAS® AmpliPrep/COBAS® TaqMan® HCV Test, Version 2, Test Code 1220) for quantitative analysis. […] There were no adverse effects, illness, nor distress seen with the three chimpanzees during the study requiring veterinarian intervention.

[5] = Tolerability of single oral dosage in HCV-infected chimpanzees; assay type: in vivo, chimpanzee; details: single oral dosage 260 mg
Description: as §5

Huh7 cells [6] = assay: TC50 assay in Huh7 cells, 48 h (CellTiter 96); details: read-out: TC50; Huh7 cells, 48 h exposure
Description: as §1, §2

[7] = Huh-7, Huh7 cells containing HCV luciferase replicon, 48 h exposure, read-out: IC50
[8] = Huh-7, 96 h of treatment, read-out: TC50 Huh7
[9] = HepG2, 96 h of treatment, read-out: TC50 HEPG2
[10] = HEK293, 96 h of treatment, read-out: TC50 HEK293
[11] = MCF7, 96 h of treatment, read-out: TC50 MCF-7
[12] = BXPC-3, 96 h of treatment, read-out: TC50 BxPC3
[13] = read-out: TC50 (μM) in PK9 cells at 48 h Without NBTI

| SMILES | Therapeutic Index (TC50/IC50) (HCV luciferase replicon) | CC50 (PK9 cells [2]) [µM] | CC50 (RPK9 cells) [µM] | IC50 (HCV luciferase replicon; [7]) [nM] | CC50 (Huh7; [8]) [µM] | CC50 (HEPG2; [9]) [µM] | CC50 (HEK293; [10]) [µM] | CC50 (MCF-7; [11]) [µM] | CC50 (BxPC3; [12]) [µM] | CC50 (PK9 cells [3]; [13]) [µM] | further results |
| --- | --- | --- | --- | --- | --- | --- | --- | --- | --- | --- | --- |
| CC(C)OC(=O)[C@H](C)N[P@](=O)(OC[C@H]1O[C@@H](n2ccc(NC(=O)c3ccc4c(c3)OCO4)nc2=O)C(F)(F)C1O)Oc1ccccc1 (stereo in doubt) [Compound 4] | 134 | 16 ± 4.8 | 20.3 ± 3.9 | – | – | – | – | – | – | – | IC50 (HCV luciferase replicon; Huh-7, 48 h): 309 ± 45 nM; CC50 at 48 h [1]: 41400 ± 5600 nM; CC50 (Huh7; Huh-7, 96 h, read-out: TC50 Huh7 (μM)): 5.5 µM; CC50 (HEPG2; HepG2, 96 h, read-out: TC50 HEPG2 (μM)): 3.22 µM; CC50 (HEK293; HEK293, 96 h, read-out: TC50 HEK293 (μM)): 2.7 µM; CC50 (MCF-7; MCF7, 96 h, read-out: TC50 MCF-7 (μM)): 1.93 µM; CC50 (BxPC3; BXPC-3, 96 h, read-out: TC50 BxPC3 (μM)): 4.05 µM |
| Nc1ccn([C@@H]2O[C@H](CO)[C@@H](O)C2(F)F)c(=O)n1 [Gemcitabine, 2′,2′-difluorodeoxycytidine, reference compound] | – | 0.095 ± 0.035 | > 500 | 58 ± 6 | 3.41 ± 1.36 | 0.311 ± 0.055 | 0.56 ± 0.13 | 0.067 ± 0.014 | 0.0029 ± 0.003 | 0.095 | – |
| CCCC(CCC)C(=O)Nc1ccn(C2O[C@H](CO)[C@@H](O)C2(F)F)c(=O)n1 (stereo partly shown) [Non-phosphorylated analog of Compound 1] | 850 | 1.27 ± 0.09 | > 500 | 451 ± 79 | 3.89 ± 0.68 | 4.32 ± 0.34 | 15.1 ± 1.77 | 9.06 ± 1.95 | 1.02 ± 0.15 | 1.27 | CC50 at 48 h ([1]; Huh7 cells): 383000 ± 51000 nM; CC50 (Huh7 cells [4]; read-out: TC50 (μM) in Huh7 cells at 48 h With NBTI): 260 µM; CC50 (Huh7 cells [4]; read-out: TC50 (μM) in Huh7 cells at 48 h Without NBTI): 383 µM; CC50 (PK9 cells [3]; read-out: TC50 (μM) in PK9 cells at 48 h With NBTI): 6.6 µM; drop of HCV viral titer after 12 hours (genotype 1a HCV; single oral dosage 260 mg): 8%; HCV viral titer after 12 hours (genotype 1a HCV; single oral dosage 260 mg in Formulation I, titer before 154,000 IU/ml): 142,000 IU/ml; tolerability [5]: well tolerated |
| COc1cc(C(=O)Nc2ccn([C@@H]3O[C@H](CO)[C@@H](O)C3(F)F)c(=O)n2)cc(OC)c1OC [Non-phosphorylated analog of Compound 3, N-(1-((2R,4R,5R)-3,3-difluoro-4-hydroxy-5-(hydroxymethyl)tetrahydrofuran-2-yl)-2-oxo-1,2-dihydropyrimidin-4-yl)-3,4,5-trimethoxybenzamide] | 10040 | 1.69 ± 0.1 | > 500 | 49.3 ± 8.8 | 5.05 | 1.67 | 1.28 | 0.566 | 1.83 | – | CC50 (Huh7 cells [6]): 495000 ± 97000 nM |
